Laboratory results taken from paper PMC2828351 (Bioorganic & medicinal chemistry, 2009).

Tests used:
GST-JNK1 = GST-JNK1 (Homo sapiens, UniProt P45983); test: pepJIP1 DELFIA displacement assay; type: binding
JNK = JNK (Homo sapiens, UniProt P45983); test: LanthaScreen kinase activity assay; type: biochemical
Furin = Furin (Homo sapiens, UniProt P09958); test: Selectivity profile: furin protease; type: biochemical
p38α = p38α (Homo sapiens, UniProt Q16539); test: Selectivity profile: p38α kinase; type: biochemical
Chain of p38α (Q16539 whole entry): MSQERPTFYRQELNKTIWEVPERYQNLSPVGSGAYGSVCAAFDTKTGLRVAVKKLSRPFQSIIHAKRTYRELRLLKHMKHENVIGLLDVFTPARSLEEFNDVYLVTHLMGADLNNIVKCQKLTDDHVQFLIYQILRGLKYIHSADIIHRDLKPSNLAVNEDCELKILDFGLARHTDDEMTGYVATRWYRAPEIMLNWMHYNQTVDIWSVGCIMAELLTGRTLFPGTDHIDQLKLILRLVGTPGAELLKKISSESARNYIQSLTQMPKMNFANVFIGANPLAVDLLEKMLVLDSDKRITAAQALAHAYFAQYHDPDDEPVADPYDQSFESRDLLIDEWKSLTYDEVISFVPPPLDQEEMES

Akt kinase = test: Selectivity profile: Akt kinase; type: biochemical; settings: for activity against Akt kinase: no significant inhibition at 100 μM
lethal factor (LF) = lethal factor (LF) (Bacillus anthracis, UniProt P15917); test: biochemical; type: biochemical
Chain of lethal factor (LF) (P15917 34-809 limits assumed): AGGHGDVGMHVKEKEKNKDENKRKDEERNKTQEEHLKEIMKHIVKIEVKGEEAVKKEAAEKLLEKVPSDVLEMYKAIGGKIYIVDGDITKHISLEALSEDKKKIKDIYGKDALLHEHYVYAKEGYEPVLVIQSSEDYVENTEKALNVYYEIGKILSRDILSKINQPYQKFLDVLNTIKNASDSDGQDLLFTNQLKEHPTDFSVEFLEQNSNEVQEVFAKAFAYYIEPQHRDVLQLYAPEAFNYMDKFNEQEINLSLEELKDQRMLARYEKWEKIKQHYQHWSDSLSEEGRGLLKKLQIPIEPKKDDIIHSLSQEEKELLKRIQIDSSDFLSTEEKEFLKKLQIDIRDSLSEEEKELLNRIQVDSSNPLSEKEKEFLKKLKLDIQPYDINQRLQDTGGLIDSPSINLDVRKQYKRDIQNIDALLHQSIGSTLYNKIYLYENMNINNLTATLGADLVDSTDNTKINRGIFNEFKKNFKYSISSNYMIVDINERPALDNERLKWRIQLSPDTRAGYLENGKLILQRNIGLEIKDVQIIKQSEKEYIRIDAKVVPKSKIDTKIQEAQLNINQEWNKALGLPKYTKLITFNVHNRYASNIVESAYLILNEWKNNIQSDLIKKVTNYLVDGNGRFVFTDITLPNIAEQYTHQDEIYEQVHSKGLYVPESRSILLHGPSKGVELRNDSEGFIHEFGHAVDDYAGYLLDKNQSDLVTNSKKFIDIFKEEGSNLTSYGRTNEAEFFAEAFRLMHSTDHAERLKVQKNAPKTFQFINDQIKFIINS

Chain of JNK (P45983 whole entry): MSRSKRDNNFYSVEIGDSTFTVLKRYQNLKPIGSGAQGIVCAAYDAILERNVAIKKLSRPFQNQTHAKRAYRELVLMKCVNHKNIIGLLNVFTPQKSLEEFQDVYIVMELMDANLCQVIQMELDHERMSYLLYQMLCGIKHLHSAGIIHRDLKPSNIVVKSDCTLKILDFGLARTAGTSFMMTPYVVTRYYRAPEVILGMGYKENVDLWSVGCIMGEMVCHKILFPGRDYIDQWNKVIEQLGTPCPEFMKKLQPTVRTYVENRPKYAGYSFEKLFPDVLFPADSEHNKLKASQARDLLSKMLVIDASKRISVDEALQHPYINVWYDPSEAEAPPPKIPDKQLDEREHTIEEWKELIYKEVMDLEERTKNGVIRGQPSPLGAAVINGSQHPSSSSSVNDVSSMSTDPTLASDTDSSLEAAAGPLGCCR
Chain of GST-JNK1 (P45983 whole entry): as above
Chain of Furin (P09958 108-794, species assumed): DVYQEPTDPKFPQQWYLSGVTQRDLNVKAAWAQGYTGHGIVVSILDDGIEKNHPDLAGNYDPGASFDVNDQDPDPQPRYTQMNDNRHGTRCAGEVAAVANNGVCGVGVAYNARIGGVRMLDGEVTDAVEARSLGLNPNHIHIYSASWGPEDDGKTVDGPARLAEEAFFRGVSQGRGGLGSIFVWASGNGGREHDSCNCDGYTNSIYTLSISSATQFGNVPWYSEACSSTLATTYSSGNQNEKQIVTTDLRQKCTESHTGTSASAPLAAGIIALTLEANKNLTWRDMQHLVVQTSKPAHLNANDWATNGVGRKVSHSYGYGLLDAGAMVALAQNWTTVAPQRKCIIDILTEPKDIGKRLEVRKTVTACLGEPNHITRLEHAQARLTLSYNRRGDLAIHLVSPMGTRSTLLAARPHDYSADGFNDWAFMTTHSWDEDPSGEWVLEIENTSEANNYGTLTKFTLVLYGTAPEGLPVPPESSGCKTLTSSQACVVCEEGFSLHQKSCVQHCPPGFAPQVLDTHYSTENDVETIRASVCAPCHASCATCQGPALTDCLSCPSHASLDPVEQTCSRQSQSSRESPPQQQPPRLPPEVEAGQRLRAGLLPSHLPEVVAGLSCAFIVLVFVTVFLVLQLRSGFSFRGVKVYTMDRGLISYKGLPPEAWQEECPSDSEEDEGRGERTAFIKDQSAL

Row | SMILES | IC50 (GST-JNK1) [µM] | activity in kinase assay / JNK inhibition (JNK) | further results
1 | Nc1ncnc2[nH]c(SCc3ccc(C(=O)O)cc3)nc12 [BI-87C7] | > 100 | none of these were good JNK inhibitors | –
2 | Nc1ncnc2nc(Sc3ncc([N+](=O)[O-])s3)[nH]c12 [BI-87C10] | < 1 | none of these were good JNK inhibitors | –
3 | O=C(O)c1ccc(CSc2nc3ccccc3[nH]2)cc1 [BI-87D4] | > 100 | – | –
4 | COc1ccc2sc(Sc3ncc([N+](=O)[O-])s3)nc2c1 [BI-87D11] | – | – | activity against furin (Furin): inactive; times less active against p38α (vs JNK) (p38α): at least 50 times; Akt, inhibition at 100 μM (Akt kinase): 5% inhibition at 100 μM; activity against Akt kinase (Akt kinase): inactive; IC50 (lethal factor (LF)): > 100 µM; activity against lethal factor (lethal factor (LF)): inactive
5 | O=[N+]([O-])c1cnc(Sc2nc3cc(Cl)ccc3s2)s1 [BI-87F2] | – | inactive | –
6 | Cn1c(Sc2ncc([N+](=O)[O-])s2)nc2ccccc21 [BI-87F7] | – | no activity | –
7 | O=[N+]([O-])c1cnc(Sc2nc3ccc(Cl)cc3s2)s1 [BI-87F8] | – | inactive | –
8 | Cn1c(Sc2nc3ccc(Cl)cc3s2)nnc1-c1cccs1 [BI-87F11] | > 100 | – | –
9 | Cn1c(Sc2nc3ccc(Cl)cc3s2)nnc1-c1ccc2ncccc2c1 [BI-87F12] | > 100 | – | –
10 | CCOc1ccc2nc(Sc3ncc([N+](=O)[O-])s3)sc2c1 [BI-87G2] | > 100 | inactive | –
11 | O=[N+]([O-])c1cnc(Sc2nc3ccccc3s2)s1 [BI-87G3, 2-(5-nitrothiazol-2-ylthio)benzo[d]thiazole] | – | – | activity against furin (Furin): inactive; times less active against p38α (vs JNK) (p38α): at least 50 times; Akt, inhibition at 100 μM (Akt kinase): 2% inhibition at 100 μM; activity against Akt kinase (Akt kinase): inactive; IC50 (lethal factor (LF)): > 100 µM; activity against lethal factor (lethal factor (LF)): inactive
12 | Cn1c(Sc2nc3ccc(Cl)cc3s2)nnc1-c1ccc(Cl)cc1Cl [BI-87G12] | > 100 | – | –
13 | O=[N+]([O-])c1cnc(Sc2nc3cc(S(=O)(=O)O)ccc3[nH]2)s1 [BI-87H1] | > 100 | – | –
